Reference: patent US9381200B2, “Nitrogen containing compounds” (WOCKHARDT LIMITED, priority 2011, dated 2016)
In brackets after ≈: the same amount, converted by molar mass. Like-named read-outs stand apart in the source and are kept apart here.

How the values were obtained:
Assay in all cases: Antibacterial activity (MIC), agar dilution per CLSI
Assay type in all cases: cell-based
[1] = tested on: E. coli M 50; conditions: E. coli M 50 expressing ESBL, agar dilution
Procedure: (§1) The biological activity of representative compounds according to the invention against various bacterial strains was investigated. In a typical study, overnight grown bacterial cultures were diluted appropriately and inoculated on the agar media containing doubling dilutions of the test compounds. Observation for growth or no growth was performed after 16-20 hours of incubation at 35±2° C. in ambient air. The overall procedure was performed as per Clinical and Laboratory Standards Institute (CLSI) recommendations (Clinical and Laboratory Standards Institute (CLSI), Performance Standards for Antimicrobial Susceptibility Testing, 20th Informational Supplement, M 100-S20, Volume 30, No. 1, 2010).
The activities are expressed as MICs (mcg/ml).

[2] = tested on: E. coli 7 MP; conditions: Table 3, E. coli 7 MP expressing ESBL
Procedure: as §1
(§2) Table 3 details antibacterial activity of representative compounds according to the invention against various E. coli strains (NCTC 13351, M 50 and 7 MP) expressing ESBL (Extended Spectrum Beta Lactamases).

[3] = tested on: E. coli NCTC 13351; conditions: 16-20 hours, 35±2° C.
Procedure: as §1, §2

[4] = Table 3, E. coli NCTC 13351 expressing ESBL
[5] = Escherichia coli, M50, Table 3, read-out: MIC
[6] = Escherichia coli, read-out: MIC
[7] = Escherichia coli, NCTC13351, Table 3, E. coli NCTC 13351 expressing ESBL, read-out: MIC

MIC ([1]; Table 3)	MIC [2]	MIC [3, 4]	MIC [1, 5]	MIC [2, 6]	MIC [3, 7]	Structure (SMILES)
8 mg/L	8 mg/L	4 mg/L				O=C(CN1CCOCC1)NNC(=O)C1CCC2CN1C(=O)N2OS(=O)(=O)[O-].[Na+] (stereo not drawn) [Example 45, Sodium salt of trans-sulfuric acid mono-[2-(N′-(morpholin-4-yl-acetyl)-hydrazinocarbonyl)-7-oxo-1,6-diaza-bicyclo[3.2.1]oct-6-yl]ester]
64 mg/L	128 mg/L	32 mg/L				O=C(NNC(=O)N1CCOCC1)[C@H]1CC[C@@H]2CN1C(=O)N2OS(=O)(=O)O.[Na] (relative stereo) [Example 47, Sodium salt of trans-sulfuric acid mono-[2-(N′-(morpholin-4-oxo-carbonyl)-hydrazinocarbonyl)-7-oxo-1,6-diaza-bicyclo[3.2.1]oct-6-yl]ester]
			1 mg/L (≈ 2.64 µM)	4 mg/L (≈ 10.5 µM)	1 mg/L (≈ 2.64 µM)	NCCCCC(=O)NNC(=O)[C@H]1CC[C@@H]2CN1C(=O)N2OS(=O)(=O)O (relative stereo) [Example 25, trans-sulfuric acid mono-[2-(N′-(5-amino-pentanoyl)-hydrazinocarbonyl)-7-oxo-1,6-diaza-bicyclo[3.2.1]oct-6-yl]ester]

More lines, now with the values behind:

Structure (SMILES)	MIC ([1]; Table 3)	MIC [2]	MIC [3, 4]	MIC [1, 5]	MIC [2, 6]	MIC [3, 7]
O=C(NNC(=O)[C@H]1CC[C@@H]2CN1C(=O)N2OS(=O)(=O)O)[C@H]1CCNC1 (mixture of isomers) [Example 33, trans-sulfuric acid mono-[2-(N′—[(S)-pyrrolidin-3-carbonyl]-hydrazinocarbonyl)-7-oxo-1,6-diaza-bicyclo[3.2.1]oct-6-yl]ester]				0.5 mg/L	2 mg/L	1 mg/L
N=C(N)N[C@@H]1CN[C@H](C(=O)NNC(=O)[C@H]2CC[C@@H]3CN2C(=O)N3OS(=O)(=O)O)C1 (mixture of isomers) [Example 36, trans-sulfuric acid mono-[2-(N′-[(2S,4S)-4-guanidino-pyrrolidin-2-carbonyl]-hydrazinocarbonyl)-7-oxo-1,6-diaza-bicyclo[3.2.1]oct-6-yl]ester]				1 mg/L	2 mg/L	1 mg/L
CC(C)(C)OC(=O)NNC(=O)[C@H]1CC[C@@H]2CN1C(=O)N2OS(=O)(=O)[O-].[Na+] (relative stereo) [Example 44, Sodium salt of trans-N′-(7-oxo-6-sulfooxy-1,6-diaza-bicyclo[3.2.1]octane-2-carboxylic acid)-hydrazinecarboxylic acid tert-butyl ester]	32 mg/L	64 mg/L	32 mg/L			
O=C(NNC(=O)[C@H]1CCCCN1)[C@H]1CC[C@@H]2CN1C(=O)N2OS(=O)(=O)O (mixture of isomers) [Example 18, trans-sulfuric acid mono-[2-(N′—((R)-piperidin-2-carbonyl)-hydrazinocarbonyl)-7-oxo-1,6-diaza-bicyclo[3.2.1]oct-6-yl]ester]				4 mg/L	32 mg/L	8 mg/L
O=C(NNC(=O)[C@H]1CC[C@@H]2CN1C(=O)N2OS(=O)(=O)O)[C@H]1CCCNC1 (mixture of isomers) [Example 15, trans-sulfuric acid mono-[2-(N′—((S)-piperidin-3-carbonyl)-hydrazinocarbonyl)-7-oxo-1,6-diaza-bicyclo[3.2.1]oct-6-yl]ester]				4 mg/L	16 mg/L	8 mg/L
O=C(NNC(=O)[C@H]1CC[C@@H]2CN1C(=O)N2OS(=O)(=O)O)[C@@H]1COCCN1 (mixture of isomers) [Example 39, trans-sulfuric acid mono-[2-(N′—((S)-morpholin-3-carbonyl)-hydrazinocarbonyl)-7-oxo-1,6-diaza-bicyclo[3.2.1]oct-6-yl]ester]				2 mg/L	8 mg/L	4 mg/L
